Measurements from ChEMBL document CHEMBL5380785, “Application of Novel Degraders Employing Autophagy for Expediting Medicinal Research” (J Med Chem, 2023).
One block for each compound: values may come before it.

Tests used:
[1] = Downregulation of extracellular oleic acid induced lipid droplets in MEF cells; assay type: functional, Mus musculus
[2] = target: T1, Methionine aminopeptidase 2 (Homo sapiens, UniProt P50579); assay: Induction of MetAP2 degradation in human HEK293 cells; assay type: cell-based
T1 sequence (P50579 whole entry): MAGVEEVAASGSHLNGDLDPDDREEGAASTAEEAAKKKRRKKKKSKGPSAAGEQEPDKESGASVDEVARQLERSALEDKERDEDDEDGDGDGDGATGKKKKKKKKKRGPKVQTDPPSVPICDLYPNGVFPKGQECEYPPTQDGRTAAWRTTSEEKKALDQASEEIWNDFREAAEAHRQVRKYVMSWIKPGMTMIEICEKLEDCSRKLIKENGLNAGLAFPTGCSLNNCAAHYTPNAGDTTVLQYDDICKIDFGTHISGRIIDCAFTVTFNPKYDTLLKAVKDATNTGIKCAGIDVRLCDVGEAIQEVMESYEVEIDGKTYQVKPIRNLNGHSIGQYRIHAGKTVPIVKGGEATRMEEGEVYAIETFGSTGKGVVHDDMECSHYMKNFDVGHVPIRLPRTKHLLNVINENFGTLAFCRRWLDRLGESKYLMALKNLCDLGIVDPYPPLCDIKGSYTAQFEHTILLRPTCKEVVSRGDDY

[3] = target: T1, Methionine aminopeptidase 2; assay: Induction of MetAP2 degradation in human U87MG cells; assay type: cell-based; conditions: u87mg human egfr viii
Androgen receptor = target: T2, Androgen receptor (Homo sapiens, UniProt P10275); assay: Induction of AR degradation in human LNCaP cells; assay type: cell-based
T2 sequence (P10275 whole entry): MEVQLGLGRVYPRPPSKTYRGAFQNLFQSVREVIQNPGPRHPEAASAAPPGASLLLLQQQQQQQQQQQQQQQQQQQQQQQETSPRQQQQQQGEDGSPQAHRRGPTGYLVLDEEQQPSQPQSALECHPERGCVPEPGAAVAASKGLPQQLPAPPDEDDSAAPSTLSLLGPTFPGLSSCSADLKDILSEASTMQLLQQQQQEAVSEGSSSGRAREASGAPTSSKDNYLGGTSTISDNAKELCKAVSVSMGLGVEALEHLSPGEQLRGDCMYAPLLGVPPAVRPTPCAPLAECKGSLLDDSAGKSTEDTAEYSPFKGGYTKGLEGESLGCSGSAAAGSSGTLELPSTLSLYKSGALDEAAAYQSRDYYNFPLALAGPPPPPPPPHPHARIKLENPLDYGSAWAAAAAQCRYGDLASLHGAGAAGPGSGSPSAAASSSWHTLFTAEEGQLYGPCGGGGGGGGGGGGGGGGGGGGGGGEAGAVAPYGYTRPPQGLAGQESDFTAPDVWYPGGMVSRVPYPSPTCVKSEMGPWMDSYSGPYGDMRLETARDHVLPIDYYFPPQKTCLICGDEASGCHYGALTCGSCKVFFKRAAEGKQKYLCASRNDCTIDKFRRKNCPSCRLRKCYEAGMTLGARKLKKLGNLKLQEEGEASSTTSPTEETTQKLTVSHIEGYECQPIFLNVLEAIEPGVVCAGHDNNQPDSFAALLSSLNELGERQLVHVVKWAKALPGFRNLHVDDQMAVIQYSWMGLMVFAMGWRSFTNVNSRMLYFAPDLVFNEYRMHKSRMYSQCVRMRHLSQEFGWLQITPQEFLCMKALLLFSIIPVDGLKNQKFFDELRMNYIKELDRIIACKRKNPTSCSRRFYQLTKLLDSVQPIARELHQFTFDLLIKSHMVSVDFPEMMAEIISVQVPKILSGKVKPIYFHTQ

[4] = target: Bromodomain-containing protein 4 (Homo sapiens) (UniProt O60885); assay: Induction of BRD4 degradation in human HeLa cells relative to control; assay type: cell-based
[5] = target: Bromodomain-containing protein 4 (Homo sapiens) (UniProt O60885); assay: Induction of BRD4 degradation in human MDA-MB-231 cells at 10 uM relative to control; assay type: cell-based
[6] = target: Sequestosome-1/Microtubule-associated protein tau (Homo sapiens, UniProt P10636+Q13501, P618L); assay: Autotac activity at p62/tau P301L mutant in human SH-SY5Y cells assessed as tau P301L degradation; assay type: cell-based
Sequence of Sequestosome-1/Microtubule-associated protein tau (P10636 2-758 P618L limits assumed, stated change not applied): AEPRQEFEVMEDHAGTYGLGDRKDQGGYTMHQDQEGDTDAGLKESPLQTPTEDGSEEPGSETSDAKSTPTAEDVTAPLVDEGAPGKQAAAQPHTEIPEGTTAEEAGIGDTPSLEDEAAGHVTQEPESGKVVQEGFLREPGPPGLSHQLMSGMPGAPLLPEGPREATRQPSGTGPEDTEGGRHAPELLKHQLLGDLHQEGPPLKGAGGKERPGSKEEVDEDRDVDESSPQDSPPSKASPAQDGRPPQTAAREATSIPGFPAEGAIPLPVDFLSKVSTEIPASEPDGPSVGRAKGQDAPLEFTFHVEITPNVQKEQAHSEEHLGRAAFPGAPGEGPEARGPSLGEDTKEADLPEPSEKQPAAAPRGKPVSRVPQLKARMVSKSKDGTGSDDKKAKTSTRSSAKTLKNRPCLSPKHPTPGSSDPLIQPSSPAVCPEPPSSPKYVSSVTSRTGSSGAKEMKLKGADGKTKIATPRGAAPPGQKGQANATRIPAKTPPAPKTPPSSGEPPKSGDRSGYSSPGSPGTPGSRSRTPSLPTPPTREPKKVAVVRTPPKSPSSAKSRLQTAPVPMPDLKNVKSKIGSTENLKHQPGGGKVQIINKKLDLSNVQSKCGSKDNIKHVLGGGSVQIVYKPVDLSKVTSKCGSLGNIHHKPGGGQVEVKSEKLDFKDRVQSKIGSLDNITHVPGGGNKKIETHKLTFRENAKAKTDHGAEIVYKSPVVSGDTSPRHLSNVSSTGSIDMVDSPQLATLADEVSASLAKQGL
Sequence of Sequestosome-1/Microtubule-associated protein tau (Q13501 2-440 limits assumed, stated change not applied): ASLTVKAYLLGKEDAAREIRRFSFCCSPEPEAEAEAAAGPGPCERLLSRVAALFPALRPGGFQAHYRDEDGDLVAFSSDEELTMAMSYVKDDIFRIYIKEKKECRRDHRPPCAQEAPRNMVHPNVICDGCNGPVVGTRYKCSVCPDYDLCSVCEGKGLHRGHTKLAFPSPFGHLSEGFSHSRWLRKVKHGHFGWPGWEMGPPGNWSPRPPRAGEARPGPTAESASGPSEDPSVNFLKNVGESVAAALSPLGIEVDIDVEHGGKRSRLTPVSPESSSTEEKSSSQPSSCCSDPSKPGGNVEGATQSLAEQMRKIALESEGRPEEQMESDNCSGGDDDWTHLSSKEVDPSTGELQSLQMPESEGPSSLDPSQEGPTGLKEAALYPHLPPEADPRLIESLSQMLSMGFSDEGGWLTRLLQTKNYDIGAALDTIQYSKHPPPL

Cortical neuron = assay: Induction of huntingtin polyQ mutant degradation in mouse primary cortical neuron; assay type: cell-based; conditions: dose 10.0 µM
[7] = target: T3, Nicotinamide phosphoribosyltransferase (Homo sapiens, UniProt P43490); assay: Induction of NAMPT degradation in human A2780 cells; assay type: cell-based
Target sequence in this assay (P43490 whole entry): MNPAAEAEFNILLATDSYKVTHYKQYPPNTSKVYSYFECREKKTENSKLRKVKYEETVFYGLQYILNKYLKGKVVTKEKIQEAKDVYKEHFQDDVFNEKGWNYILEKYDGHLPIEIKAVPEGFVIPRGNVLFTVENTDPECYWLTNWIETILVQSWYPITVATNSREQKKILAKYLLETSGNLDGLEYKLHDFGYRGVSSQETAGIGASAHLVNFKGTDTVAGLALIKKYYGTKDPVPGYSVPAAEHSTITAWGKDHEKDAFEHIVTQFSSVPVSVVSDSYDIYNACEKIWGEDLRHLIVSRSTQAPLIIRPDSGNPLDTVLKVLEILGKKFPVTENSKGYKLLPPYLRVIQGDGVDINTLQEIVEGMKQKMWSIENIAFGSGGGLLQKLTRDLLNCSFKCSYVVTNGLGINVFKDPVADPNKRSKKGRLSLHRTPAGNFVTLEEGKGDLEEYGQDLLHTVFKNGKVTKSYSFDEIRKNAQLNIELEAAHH

[8] = target: T3, Nicotinamide phosphoribosyltransferase; assay: Induction of NAMPT degradation in human A2780 cells at 3 uM relative to control; assay type: cell-based
Target sequence in this assay (P43490 whole entry, looked up): as the sequence (P43490 whole entry) above

[9] = Induction of huntingtin polyQ mutant degradation in human A 172 cells; assay type: cell-based
[10] = target: T4, Sequestosome-1/Estrogen receptor beta (Homo sapiens, UniProt Q92731+Q13501); assay: Autotac activity at p62/ERbeta degradation in HEK293T cells; assay type: cell-based
T4 sequence (Q92731 whole entry): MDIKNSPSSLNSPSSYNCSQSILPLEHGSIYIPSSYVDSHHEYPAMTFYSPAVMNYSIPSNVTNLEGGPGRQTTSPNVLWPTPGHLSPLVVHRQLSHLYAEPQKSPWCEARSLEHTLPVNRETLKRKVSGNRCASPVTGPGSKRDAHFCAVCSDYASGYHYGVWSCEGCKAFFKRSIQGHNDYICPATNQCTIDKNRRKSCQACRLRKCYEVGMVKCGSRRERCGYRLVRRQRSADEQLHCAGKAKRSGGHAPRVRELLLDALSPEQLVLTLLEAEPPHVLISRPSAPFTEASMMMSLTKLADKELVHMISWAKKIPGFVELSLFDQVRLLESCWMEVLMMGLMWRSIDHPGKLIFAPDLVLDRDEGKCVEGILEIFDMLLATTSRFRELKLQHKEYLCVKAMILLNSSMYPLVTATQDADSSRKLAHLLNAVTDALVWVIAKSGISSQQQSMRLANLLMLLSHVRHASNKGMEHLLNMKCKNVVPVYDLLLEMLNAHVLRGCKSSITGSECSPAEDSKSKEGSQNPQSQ
T4 sequence (Q13501 whole entry): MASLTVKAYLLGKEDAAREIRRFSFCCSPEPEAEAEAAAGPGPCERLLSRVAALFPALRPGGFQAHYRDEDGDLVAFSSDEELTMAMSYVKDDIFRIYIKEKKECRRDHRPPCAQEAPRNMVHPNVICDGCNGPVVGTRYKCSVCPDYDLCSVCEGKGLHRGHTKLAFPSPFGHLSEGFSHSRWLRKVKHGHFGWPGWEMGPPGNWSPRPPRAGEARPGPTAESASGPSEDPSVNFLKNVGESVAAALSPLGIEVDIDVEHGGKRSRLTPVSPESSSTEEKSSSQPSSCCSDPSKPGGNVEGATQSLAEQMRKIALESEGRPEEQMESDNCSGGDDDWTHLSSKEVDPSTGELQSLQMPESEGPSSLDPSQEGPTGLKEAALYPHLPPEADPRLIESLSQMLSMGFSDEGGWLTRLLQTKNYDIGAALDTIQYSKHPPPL

[11] = target: T4, Sequestosome-1/Estrogen receptor beta; assay: Autotac activity at p62/ERbeta degradation in human ACHN cells; assay type: cell-based
[12] = target: T4, Sequestosome-1/Estrogen receptor beta; assay: Autotac activity at p62/ERbeta degradation in human MCF7 cells; assay type: cell-based
Estrogen receptor beta [13] = target: T5, Estrogen receptor beta (Homo sapiens, UniProt Q92731); assay: Induction of ERbeta degradation in human HEK293T cells; assay type: cell-based
T5 sequence (Q92731 whole entry): as the sequence (Q92731 whole entry) above

Estrogen receptor beta [14] = target: T5, Estrogen receptor beta; assay: Induction of ERbeta degradation in human ACHN cells; assay type: cell-based
Estrogen receptor beta [15] = target: T5, Estrogen receptor beta; assay: Induction of ERbeta degradation in human MCF7 cells; assay type: cell-based

Compound: Cc1ccccc1/N=N/c1ccc(/N=N/c2c(OCCCCCCCCCCN3C(=O)/C(=C\c4cc(Br)c(O)c(Br)c4)c4cc(I)ccc43)ccc3ccccc23)c(C)c1
ED [1]: 5 µM

DC50 [2]: 700 nM | DC50 [3]: 500 nM
Compound: COC1C(OC(=O)/C=C/C=C/C=C/C=C/C(=O)NCCOCCOCCNCc2cccc(OCc3ccccc3)c2)CCC2(CO2)C1C1(C)OC1CC=C(C)C (centres undefined)

DC50 (Androgen receptor): 200 nM
Compound: C=CC(C)(O)C(=O)N(C(=O)NCCOCCOCCNC[C@@H](O)COc1ccc(OCCc2ccccc2)c(OCCCc2ccccc2)c1)c1cc(Cl)cc(Cl)c1 (some centres undefined)

Activity [4]: 92% | Activity [5]: 99%
Compound: CC1=C(C)C2C(c3ccc(Cl)cc3)=N[C@@H](CC(=O)NCCCOCCOCCOCCCNC(=O)COc3c(Br)cc(/C=C4\C(=O)Nc5ccc(I)cc54)cc3Br)c3nnc(C)n3C2S1 (some centres undefined)

DC50 [6]: 1 nM
Compound: O=C(CCCc1ccccc1)NCCOCCOCCOCCNCc1ccc(OCc2ccccc2)c(OCc2ccccc2)c1

Compound: O=C1Nc2ccc(Br)cc2/C1=C/c1cc(O)c(O)c(Br)c1
ED (Cortical neuron): 50 nM

Compound: Cc1ccccc1/N=N/c1ccc(/N=N/c2c(OCCCCCCCCCCOc3cc(O)cc4oc(=O)cc(-c5ccccc5)c34)ccc3ccccc23)c(C)c1
ED [1]: 5 µM

IC50 [7]: 40 nM | Activity [8]: 91%
Compound: Cc1ccc(C(=O)N(CCCNC(=O)CCCCCCCCN2CCN(S(=O)(=O)c3ccc(NC(=S)NCc4cccnc4)cc3)CC2)[C@@H](c2nc3cc(Cl)ccc3c(=O)n2Cc2ccccc2)C(C)C)cc1

IC50 [9]: 57.2 nM
Compound: H-GIYVIWGPITERKKRRKG-NH2

DC50 [10]: 2 nM | DC50 [11]: < 100 nM | DC50 [12]: < 100 nM | DC50 (Estrogen receptor beta [13]): 2 nM | DC50 (Estrogen receptor beta [14]): < 100 nM | DC50 (Estrogen receptor beta [15]): < 100 nM
Compound: O[C@H](CNCCOCCOCCOc1ccc(-c2c(-c3ccccc3)nn3c(C(F)(F)F)cc(C(F)(F)F)nc23)cc1)COc1ccc(OCc2ccccc2)c(OCCCc2ccccc2)c1

Compound: O=c1cc(-c2ccccc2)c2c(O)cc(O)cc2o1
ED (Cortical neuron): 75 nM
